Read-outs that look alike come from different tables or passages of the source. Values belong to the compound of their own block, whether it stands above or below them.
Key:
[1] = Stability study of solutions comprising Mesna and riboflavin 5′-phosphate sodium (HPLC quantification of Mesna); type: physicochemical; conditions: 4° C. and 20° C.
Method: A stability study was conducted for the purpose of evaluating a possible interaction between riboflavin 5′-phosphate sodium, a dye accepted for parenteral use in humans, and Mesna. […]
In order to validate the obtained data, a reference corresponding to a reconstituted solution of Mesna without riboflavin 5′-phosphate sodium was analyzed at the same time as the samples comprising riboflavin 5′-phosphate sodium (Table 5).

[2] = Stability study of Mesna powder in the presence of riboflavin 5′-phosphate sodium (weight, dry oven); type: physicochemical
Method: About 1.5 g of Mesna powder was accurately weighed, without or with 7 mg or 15 mg of riboflavin 5′-phosphate sodium, and placed in a dry oven at 20° C. for 1 month to test its stability (Table 6).

[3] = rats, intraduodenal administration compared with i.v.; cited from earlier work
[4] = cited from earlier work

- variations in Mesna content after addition of riboflavin 5′-phosphate sodium ([1]; 0.23 mg/mL and 0.50 mg/mL RF5′PNa, before the 24 h point): ≤ 1%
- stability of Mesna in dry form in the presence of riboflavin 5′-phosphate sodium (conclusion) ([2]; dry form, 1 month at 20° C.): stable
Compound: O=S(=O)([O-])CCS.[Na+] [Mesna, sodium 2-mercaptoethanesulfonate]

- W1 = weight after 1 month in dry oven at 20° C. ([2]; after 1 month in dry oven at 20° C., ± standard deviation): 4.807 ± 0.016 g
- W0 = weight before placement in dry oven at 20° C. ([2]; before placement in dry oven, ± standard deviation): 4.907 ± 0.038 g
Compound: O=S(=O)([O-])CCS.[Na+] [1.5 g Mesna powder]

Compound: CN(C)c1ccc2nc3ccc(=[N+](C)C)cc-3sc2c1 [methylene blue]
- tissue concentrations after intraduodenal versus i.v. administration [3]: higher concentrations in intestinal wall and liver but lower concentrations in whole blood and brain
- effect of co-administration of mesna on pharmacokinetics ([4]; 100 mg methylene blue with and without mesna): did not alter the pharmacokinetics
- urinary excretion of methylene blue and its leucoform ([4]; i.v. administration (second value of the pair)): 28 % dose
- urinary excretion of methylene blue and its leucoform ([4]; oral administration (first value of the pair)): 18 % dose
- estimated terminal half-life ([4]; whole blood, i.v. administration of 100 mg, seven volunteers): 5.25 h
- area under the concentration-time curve ([4]; whole blood, i.v. administration of 100 mg): 137 nmol/min/mL
- area under the concentration-time curve ([4]; whole blood, oral administration of 100 mg): 9 nmol/min/mL

- interaction of riboflavin 5′-phosphate sodium with Mesna in solution (conclusion) ([1]; phosphate buffer, 1 h and 24 h): does not interfere with or degrade Mesna
Compound: Cc1cc2nc3c(=O)[nH]c(=O)nc-3n(C[C@H](O)[C@H](O)[C@H](O)COP(=O)([O-])O)c2cc1C.[Na+] [riboflavin 5′-phosphate sodium]
